Measured values: EP1401829B1, “NOVEL HETEROCYCLIC ANTIBACTERIAL COMPOUNDS” (Microbiotix, Inc., priority 2001, dated 2002)
≈ marks a conversion by molar mass, not a printed value. Read-outs that look alike come from different tables or passages of the source.

Experiments:
[1] = target: T1, B. subtilis Pol IIIC (Bacillus subtilis, UniProt P13267); assay: Polymerase IIIC (Pol IIIC) assay, determination of Ki values; format: biochemical; settings: Ki (µM) Pol IIIC, assay in absence of dGTP or dATP; Ki is the concentration that reduces control polymerase IIIC activity by 50 percent
T1 construct: made in house
Method: (§1) The following methods were used to characterize representative compounds. Minimal Inhibitory Concentration (MIC) determinations. MIC values were determined in 96 well plates, with bacterial growth monitored at OD 600 nm in 200µl following an initial bacterial seeding at approximately 1x10^5 colony forming units (CFU)/ml. Each drug is evaluated at five concentrations, with five data points at each dilution. MIC values (µg/ml) were determined against actively growing cultures in Heart-Brain Infusion (HBI) medium. Cell growth in cultures supplemented with a test compound was calculated as a percent of control at OD 600 nm after 16 to 18 hours at 37°C. […] Polymerase IIIC (Pol IIIC) assay. DNA polymerase activity (or inhibition thereof) was measured in a 96-well plate format. B. subtilis Pol IIIC was isolated as described by Hammond and Brown (Protein Expr. Purif., 3: 65-70 (1992)). Each 25 µl assay contained 30 mM Tris, pH 7.5, 10 mM magnesium acetate, 4 mM dithiothreitol, 20% glycerol, with 25 µM dATP, dCTP, dGTP and 10 µM dTTP (^3H-labelled at 1.44 Ci/mmole) and 0.4 mg/ml activated calf thymus DNA as substrates, as described previously (see Barnes et al, op. cit). Assays were initiated by the addition of 0.025 to 0.06 units of enzyme 1 unit is the amount required to incorporate 250 pmoles of [^3H] dTMP in a standard assay), incubated for 10 minutes at 30°C and terminated by the addition of 200 µl of cold 10% trichloroacetic acid (TCA),10 mM sodium pyrophosphate. Precipitated labeled DNA was collected on glass fiber filter plates, washed, dried, and counted in a liquid scintillation counter. Determination of Ki values. DNA polymerase activity was measured in a 96-well plate format in the absence of dGTP or dATP, depending on the structure of the test compound. Each 25 µl assay contained 30 mM Tris, pH 7.5, 10 mM magnesium acetate, 4 mM dithiothreitol, 20% glycerol, with 25 µM dATP, dCTP, and 10 µM dTTP (^3H-labelled at 1.44 Ci/mmole) and 0.4 mg/ml activated calf thymus DNA as substrates, as described previously. […] Assays were initiated by the addition of 0.025 to 0.06 units of enzyme (1 unit is the amount required to incorporate 250 pmoles of [^3H] dTMP in a standard assay), incubated for 10 minutes at 30 °C and terminated by the addition of 200 µl of cold 10% trichloroacetic acid, 10 mM sodium pyrophosphate. Precipitated labeled DNA was collected on glass fiber filter plates, washed, dried, and counted in a liquid scintillation counter. Ki is the concentration of test compound that reduces the control polymerase IIIC activity by 50 percent.

[2] = test system: B. subtilis; assay: Minimal Inhibitory Concentration (MIC) determination, 96 well plates; format: cell-based, Bacillus subtilis; settings: Bacillus subtilis; HBI medium, 16 to 18 hours at 37°C; read-out: MIC (µg/ml) B. subtilis
Method: as §1
(§2) MIC values were determined for the Gram positive bacteria Bacillus subtilis, Staphylococcus aureus (two strains), Enterococcus fecalis, Enterococcus fecium, and for the Gram negative bacterium Escherichia coli.

[3] = test system: S. aureus; assay: as above; format: cell-based, Staphylococcus aureus; settings: Staphylococcus aureus; HBI medium, 16 to 18 hours at 37°C; read-out: MIC (µg/ml) S. aureus
Method: (§3) The following methods were used to characterize representative compounds. Minimal Inhibitory Concentration (MIC) determinations. MIC values were determined in 96 well plates, with bacterial growth monitored at OD 600 nm in 200µl following an initial bacterial seeding at approximately 1x10^5 colony forming units (CFU)/ml. Each drug is evaluated at five concentrations, with five data points at each dilution. MIC values (µg/ml) were determined against actively growing cultures in Heart-Brain Infusion (HBI) medium. Cell growth in cultures supplemented with a test compound was calculated as a percent of control at OD 600 nm after 16 to 18 hours at 37°C. This plate format conserves test compound and provides precise, quantitative data with low standard deviation determinations. Polymerase IIIC (Pol IIIC) assay. DNA polymerase activity (or inhibition thereof) was measured in a 96-well plate format. B. subtilis Pol IIIC was isolated as described by Hammond and Brown (Protein Expr. Purif., 3: 65-70 (1992)). Each 25 µl assay contained 30 mM Tris, pH 7.5, 10 mM magnesium acetate, 4 mM dithiothreitol, 20% glycerol, with 25 µM dATP, dCTP, dGTP and 10 µM dTTP (^3H-labelled at 1.44 Ci/mmole) and 0.4 mg/ml activated calf thymus DNA as substrates, as described previously (see Barnes et al, op. cit). Assays were initiated by the addition of 0.025 to 0.06 units of enzyme 1 unit is the amount required to incorporate 250 pmoles of [^3H] dTMP in a standard assay), incubated for 10 minutes at 30°C and terminated by the addition of 200 µl of cold 10% trichloroacetic acid (TCA),10 mM sodium pyrophosphate. Precipitated labeled DNA was collected on glass fiber filter plates, washed, dried, and counted in a liquid scintillation counter. Determination of Ki values. DNA polymerase activity was measured in a 96-well plate format in the absence of dGTP or dATP, depending on the structure of the test compound. Each 25 µl assay contained 30 mM Tris, pH 7.5, 10 mM magnesium acetate, 4 mM dithiothreitol, 20% glycerol, with 25 µM dATP, dCTP, and 10 µM dTTP (^3H-labelled at 1.44 Ci/mmole) and 0.4 mg/ml activated calf thymus DNA as substrates, as described previously. To each well were added 2 µl of compound solution to give final concentrations ranging from 20 - 0.027 µg/ml in the assay. Assays were initiated by the addition of 0.025 to 0.06 units of enzyme (1 unit is the amount required to incorporate 250 pmoles of [^3H] dTMP in a standard assay), incubated for 10 minutes at 30 °C and terminated by the addition of 200 µl of cold 10% trichloroacetic acid, 10 mM sodium pyrophosphate. Precipitated labeled DNA was collected on glass fiber filter plates, washed, dried, and counted in a liquid scintillation counter. Ki is the concentration of test compound that reduces the control polymerase IIIC activity by 50 percent.
as §2

[4] = test system: S.aureus (Smith); assay: as above; format: cell-based, Staphylococcus aureus; settings: Staphylococcus aureus; HBI medium, 16 to 18 hours at 37°C; read-out: MIC (µg/ml) S.aureus (Smith)
Method: as §1, §2

[5] = test system: E. fecalis; assay: as above; format: cell-based, Enterococcus fecalis; settings: Enterococcus; HBI medium, 16 to 18 hours at 37°C; read-out: MIC (µg/ml) E. fecalis
Method: as §1, §2

[6] = test system: E. fecium; assay: as above; format: cell-based, Enterococcus fecium; settings: Enterococcus; HBI medium, 16 to 18 hours at 37°C; read-out: MIC (µg/ml) E. fecium
Method: as §1, §2

[7] = test system: E. coli; assay: as above; format: cell-based, Escherichia coli; settings: Escherichia coli, read-out: MIC (µg/ml) E. coli
Method: as §3, §2

[8] = HBI medium, 16 to 18 hours at 37°C

T1 sequence (P13267 whole entry): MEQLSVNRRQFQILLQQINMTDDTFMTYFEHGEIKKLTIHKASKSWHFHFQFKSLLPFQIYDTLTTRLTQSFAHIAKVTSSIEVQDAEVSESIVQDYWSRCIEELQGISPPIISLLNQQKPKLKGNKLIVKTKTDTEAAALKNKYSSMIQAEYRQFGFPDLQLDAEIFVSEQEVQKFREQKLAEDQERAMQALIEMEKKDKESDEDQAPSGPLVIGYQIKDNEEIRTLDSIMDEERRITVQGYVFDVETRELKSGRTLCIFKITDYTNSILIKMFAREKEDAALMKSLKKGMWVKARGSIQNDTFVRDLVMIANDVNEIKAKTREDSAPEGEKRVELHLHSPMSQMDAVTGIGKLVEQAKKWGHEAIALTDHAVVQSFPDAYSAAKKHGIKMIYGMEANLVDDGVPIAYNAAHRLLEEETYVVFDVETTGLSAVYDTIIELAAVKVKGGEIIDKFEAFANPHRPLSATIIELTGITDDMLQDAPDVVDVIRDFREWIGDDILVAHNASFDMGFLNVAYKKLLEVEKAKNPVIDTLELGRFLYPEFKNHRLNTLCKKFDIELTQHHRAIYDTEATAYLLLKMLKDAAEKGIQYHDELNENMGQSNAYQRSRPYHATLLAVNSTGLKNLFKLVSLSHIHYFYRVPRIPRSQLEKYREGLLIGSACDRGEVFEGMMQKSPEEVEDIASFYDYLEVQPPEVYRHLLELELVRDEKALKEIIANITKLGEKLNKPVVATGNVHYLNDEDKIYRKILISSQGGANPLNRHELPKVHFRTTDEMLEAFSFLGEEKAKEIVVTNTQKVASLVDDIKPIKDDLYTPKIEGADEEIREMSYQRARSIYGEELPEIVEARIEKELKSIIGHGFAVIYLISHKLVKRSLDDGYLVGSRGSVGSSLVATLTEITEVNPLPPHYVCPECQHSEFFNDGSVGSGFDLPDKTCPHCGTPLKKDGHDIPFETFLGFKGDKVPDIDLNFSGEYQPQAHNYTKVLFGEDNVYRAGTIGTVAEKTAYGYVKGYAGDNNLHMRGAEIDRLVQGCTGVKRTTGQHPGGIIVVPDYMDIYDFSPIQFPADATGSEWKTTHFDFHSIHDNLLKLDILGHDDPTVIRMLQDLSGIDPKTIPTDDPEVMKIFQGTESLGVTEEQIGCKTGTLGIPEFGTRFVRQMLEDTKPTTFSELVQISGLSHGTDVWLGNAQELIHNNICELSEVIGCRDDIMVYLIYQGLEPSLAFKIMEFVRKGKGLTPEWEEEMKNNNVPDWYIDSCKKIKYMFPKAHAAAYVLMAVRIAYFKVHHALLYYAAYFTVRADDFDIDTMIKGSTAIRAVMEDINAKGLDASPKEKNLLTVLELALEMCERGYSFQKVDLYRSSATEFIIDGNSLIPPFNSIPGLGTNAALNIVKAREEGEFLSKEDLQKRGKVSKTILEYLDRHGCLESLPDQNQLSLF

| Structure (SMILES) | Ki [1] | MIC [2] | MIC [3] | MIC [4] | MIC [5] | MIC [6] | MIC [7, 8] | MIC [7] |
| --- | --- | --- | --- | --- | --- | --- | --- | --- |
| O=C(O)c1cn(C2CC2)c2cc(N3CCN(CCCCn4c(=O)cc(NCc5ccc(Cl)c(Cl)c5)[nH]c4=O)CC3)c(F)cc2c1=O [Compound 68, 3-{4-[1-(1-cyclopropyl-3-carboxy-4-oxo-6-fluoro-7-quinolyl)-4-piperazinyl]butyl}-6-(3,4-dichlorobenzylamino)uracil] | 0.047 µM | 0.95 µg/mL (≈ 1.41 µM) | 1.25 µg/mL (≈ 1.86 µM) | 0.625 µg/mL (≈ 0.931 µM) | 40 µg/mL (≈ 59.6 µM) | 1.25 µg/mL (≈ 1.86 µM) | 12.5 µg/mL (≈ 18.6 µM) |  |
| CCc1cc(Nc2cc(=O)n(CCCCN3CCN(c4cc5c(cc4F)c(=O)c(C(=O)O)cn5C4CC4)C(C)C3)c(=O)[nH]2)ccc1C (stereo not shown) [Compound 69, 3-{4-[1-(1-cyclopropyl-3-carboxy-4-oxo-6-fluoro-7-quinolyl)-2-methyl-4-piperazinyl]butyl}-6-(3-ethyl-4-methylanilino)uracil] | 0.026 µM | 0.23 µg/mL (≈ 0.357 µM) | 0.625 µg/mL (≈ 0.969 µM) | 0.46 µg/mL (≈ 0.713 µM) | 0.95 µg/mL (≈ 1.47 µM) | 1.25 µg/mL (≈ 1.94 µM) | 30 µg/mL (≈ 46.5 µM) |  |
| CCc1cc(Nc2cc(=O)n(CCCCN3CCN(c4c(F)cc5c(=O)c(C(=O)O)cn(C6CC6)c5c4F)C[C@@H]3C)c(=O)[nH]2)ccc1C [Compound 71, (S)-3-{4-[1-(1-cyclopropyl-3-carboxy-4-oxo-6,8-difluoro-7-quinolyl)-3-methyl-4-piperazinyl]butyl}-6-(3-ethyl-4-methylanilino)uracil] | 0.007 µM | 0.156 µg/mL (≈ 0.235 µM) | 0.313 µg/mL (≈ 0.472 µM) | 0.156 µg/mL (≈ 0.235 µM) | 1.25 µg/mL (≈ 1.89 µM) | 1.87 µg/mL (≈ 2.82 µM) | 5 µg/mL (≈ 7.54 µM) |  |
| CCc1cc(Nc2cc(=O)n(CCCCN3CCN(c4c(F)cc5c(=O)c(C(=O)O)cn(C6CC6)c5c4F)C[C@H]3C)c(=O)[nH]2)ccc1C [Compound 72, (R)-3-{4-[1-(1-cyclopropyl-3-carboxy-4-oxo-6,8-difluoro-7-quinolyl)-3-methyl-4-piperazinyl]butyl}-6-(3-ethyl-4-methylanilino)uracil] | 0.004 µM | 0.156 µg/mL (≈ 0.235 µM) | 0.625 µg/mL (≈ 0.943 µM) | 0.625 µg/mL (≈ 0.943 µM) | 1.25 µg/mL (≈ 1.89 µM) | 1.25 µg/mL (≈ 1.89 µM) | 20 µg/mL (≈ 30.2 µM) |  |
| CCc1cc(Nc2ccc(CCCCN3CCN(c4cc5c(cc4F)c(=O)c(C(=O)O)cn5CC)CC3)c(=O)[nH]2)ccc1C [Compound 78, 3-{4-[1-(1-ethyl-3-carboxy-4-oxo-6-fluoro-7-quinolyl)-4-piperazinyl]butyl}-6-(3-ethyl-4-methylanilino)-2-pyridone] | 2.4 µM | 0.625 µg/mL (≈ 1.04 µM) | 1.25 µg/mL (≈ 2.08 µM) | 2.5 µg/mL (≈ 4.15 µM) | 5 µg/mL (≈ 8.31 µM) | 5 µg/mL (≈ 8.31 µM) | > 80 µg/mL |  |
| CCc1cc(Nc2cc(=O)n(CCCCN3CCN(c4ncc5c(=O)c(C(=O)O)cn(CC)c5n4)CC3)c(=O)[nH]2)ccc1C [Compound 79, 3-{4-[1-(1-ethyl-3-carboxy-4-oxo-6,8-diaza-7-quinolyl)-4-piperazinyl]butyl}-6-(3-ethyl-4-methylanilino)uracil] | 0.028 µM | 0.156 µg/mL (≈ 0.259 µM) | 1.25 µg/mL (≈ 2.07 µM) | 0.95 µg/mL (≈ 1.58 µM) | 2.5 µg/mL (≈ 4.15 µM) | 3.7 µg/mL (≈ 6.14 µM) | > 80 µg/mL |  |
| CCc1cc(Nc2cc(=O)n(CCCCCN3CCCC4CN(c5cc6c(cc5F)c(=O)c(C(=O)O)cn6CC)CC43)c(=O)[nH]2)ccc1C (stereo not shown) [Compound 80, 3-{5-[1-(1-ethyl-3-carboxy-4-oxo-6-fluoro-7-quinolyl)-3-(1,3-diazabicyclononyl)]pentyl}-6-(3-ethyl-4-methylanilino)uracil] | 0.037 µM | 2.5 µg/mL (≈ 3.72 µM) | 7.5 µg/mL (≈ 11.1 µM) | 5 µg/mL (≈ 7.43 µM) | 12.5 µg/mL (≈ 18.6 µM) | 20 µg/mL (≈ 29.7 µM) |  | 0.8 µg/mL (≈ 1.19 µM) |
| CCc1cc(Nc2cc(=O)n(CCCCCN3CCC4CN(c5cc6c(cc5F)c(=O)c(C(=O)O)cn6C5CC5)CC43)c(=O)[nH]2)ccc1C (stereo not shown) [Compound 81, 3-{5-[1-(1-cyclopropyl-3-carboxy-4-oxo-6-fluoro-7-quinolyl)-3-(1,3-diazabicyclooctyl)]pentyl}-6-(3-ethyl-4-methylanilino)uracil] | 0.04 µM | 1.25 µg/mL (≈ 1.86 µM) | 5 µg/mL (≈ 7.45 µM) | 2.5 µg/mL (≈ 3.73 µM) | 3.7 µg/mL (≈ 5.52 µM) | 12.5 µg/mL (≈ 18.6 µM) | > 80 µg/mL |  |
| CCc1cc(Nc2cc(=O)n(CCCCCN3CCCC4CN(c5cc6c(cc5F)c(=O)c(C(=O)O)cn6C5CC5)CC43)c(=O)[nH]2)ccc1C (stereo not shown) [Compound 82, 3-{5-[1-(1-cyclopropyl-3-carboxy-4-oxo-6-fluoro-7-quinolyl)-3-(1,3-diazabicyclononyl)]pentyl}-6-(3-ethyl-4-methylanilino)uracil] | 0.041 µM | 1.25 µg/mL (≈ 1.83 µM) | 2.5 µg/mL (≈ 3.65 µM) | 1.25 µg/mL (≈ 1.83 µM) | 20 µg/mL (≈ 29.2 µM) | > 80 µg/mL | > 80 µg/mL |  |
| CCc1cc(Nc2cc(=O)n(CCCCCNC3CCN(c4cc5c(cc4F)c(=O)c(C(=O)O)cn5C4CC4)C3)c(=O)[nH]2)ccc1C (stereo not shown) [Compound 83, 3-{5-[1-(1-cyclopropyl-3-carboxy-4-oxo-6-fluoro-7-quinolyl)-3-(pyrrolidinylamino)]pentyl}-6-(3-ethyl-4-methylanilino)uracil] | 0.041 µM | 3.7 µg/mL (≈ 5.74 µM) | 20 µg/mL (≈ 31 µM) | 5 µg/mL (≈ 7.75 µM) | 5 µg/mL (≈ 7.75 µM) | 40 µg/mL (≈ 62 µM) | > 80 µg/mL |  |
